Measurements: patent US20250214942A1, “INHIBITORS OF RECEPTOR INTERACTING PROTEIN KINASE I FOR THE TREATMENT OF DISEASE” (Board of Regents, The University of Texas System, priority 2019, published 2025)

System: human monocytic cell line U937
Assay: Human U937 cellular necroptosis assay (TNFalpha + z-VAD-FMK, Cell Titer-Glo viability)
Assay type: cell-based
Conditions: Homo sapiens, U-937, 22 h, U937 cells, 25 ng/mL human TNFalpha + 25 μM z-VAD-FMK, read-out: hU937 Avg IC50
Experimental: The human monocytic cell line U937 (CRL-1593.2) was purchased from ATCC. The cells were routinely maintained in RPMI-1640 Medium (Gibco, Catalog #11875-093) supplemented with 10% heat inactivated fetal bovine serum (Gibco, Catalog #16140-071), 100 units/mL penicillin and 100 μg/mL streptomycin (Gibco, Catalog #15140-122), in a humidified incubator (37° C., 5% CO2). For the assay, cells were resuspended in RPMI-1640 phenol red free Media (Gibco, Catalog #11835-030) supplemented with 10% fetal bovine serum (Sigma, Catalog #F2442), 100 units/mL penicillin and 100 ug/mL streptomycin. Cells were stimulated with 25 ng/mL human TNFalpha (Cell Sciences, Catalog #CSI15659B) and 25 μM z-VAD-FMK (R&D Systems, Catalog #FMK001) followed by seeding 5000 cells per well in a volume of 40 μL to a white, CulturPlate-384 (Perkin Elmer, Catalog #6007680). Stock solutions of the test compounds were prepared in 100% DMSO (Sigma, Catalog #D2650) and serially diluted 1:3 using 100% DMSO. Compounds were additionally diluted 1:40 in assay medium, and 10 μL/well was transferred to the plate. Following the compound addition the plate was incubated at 37° C. and 5% CO2 for 22 h. After 22 h, viability was assessed with the addition of 20 μL of Cell Titer-Glo 2.0 (Promega, Catalog #G9243). The tissue culture plate was shaken on an orbital shaker at 300 RPM for 15 minutes at rt in the dark. Luminescence was measured using a PerkinElmer Envision™ plate reader. IC50 values were calculated using a four-parameter logistic curve fit using Genedata Screener software. Results are shown below in Table 3, where the average value across multiple runs is given.

| Structure (SMILES) | IC50 |
| --- | --- |
| O=C(N1N=CCC1c1cc(F)cc(F)c1)C12CC(COc3ncc(Cl)cn3)(C1)C2 (stereo not shown) [Example 322, (3-(((5-chloropyrimidin-2-yl)oxy)methyl)bicyclo[1.1.1]-pentan-1-yl)(5-(3,5-difluoro-phenyl)-4,5-dihydro-1H-pyrazol-1-yl)methanone] | 60 nM |
| N#Cc1ccc(OCC23CC(C(=O)N4N=CCC4c4cc(F)cc(F)c4)(C2)C3)nn1 (stereo not shown) [Example 323, 6-((3-(5-(3,5-difluorophenyl)-4,5-dihydro-1H-pyrazole-1-carbonyl)bicyclo[1.1.1]pentan-1-yl)methoxy)pyridazine-3-carbonitrile] | 153 nM |
| Cc1c(F)cc(C2CC=NN2C(=O)C23CC(Cn4ncc5cc(C#N)ccc54)(C2)C3)cc1F (stereo not shown) [Example 203, 1-((3-(5-(3,5-Difluoro-4-methylphenyl)-4,5-dihydro-1H-pyrazole-1-carbonyl)bicyclo[1.1.1]pentan-1-yl)methyl)-1H-indazole-5-carbonitrile] | 5.5 nM |
| Cc1cc(F)c(C2CC=NN2C(=O)C23CC(COc4cnc(C#N)cn4)(C2)C3)c(F)c1 (stereo not shown) [Example 304, 5-((3-(5-(2,6-difluoro-4-methylphenyl)-4,5-dihydro-1H-pyrazole-1-carbonyl)-bicyclo[1.1.1]pentan-1-yl)-methoxy)pyrazine-2-carbonitrile] | 6 nM |
| Cc1nc(CC#N)nn1CC12CC(C(=O)N3N=CCC3c3cc(F)cc(F)c3)(C1)C2 (stereo not shown) [Example 223, 2-(1-((3-(5-(3,5-difluoro-phenyl)-4,5-dihydro-1H-pyrazole-1-carbonyl)bicyclo-[1.1.1]pentan-1-yl)methyl)-5-methyl-1H-1,2,4-triazol-3-yl)acetonitrile] | 9740 nM |
| Cc1cc(F)c(C2CC=NN2C(=O)C23CC(COc4cnc(-c5cnn(C)c5)cn4)(C2)C3)cc1F (stereo not shown) [Example 345, (5-(2,5-difluoro-4-methylphenyl)-4,5-dihydro-1H-pyrazol-1-yl)(3-(((5-(1-methyl-1H-pyrazol-4-yl)pyrazin-2-yl)oxy)methyl)bicyclo[1.1.1]pentan-1-yl)methanone] | 61 nM |
| CC1CCN(C(=O)C23CC(COc4cnc(C#N)cn4)(C2)C3)C1c1ccccc1 (stereo not shown) [Example 302, 5-((3-(3-methyl-2-phenyl-pyrrolidine-1-carbonyl)-bicyclo[1.1.1]pentan-1-yl)-methoxy)pyrazine-2-carbonitrile] | 9870 nM |
| Cc1csc(C2CC=NN2C(=O)C23CC(Cn4ncc5cc(C#N)ccc54)(C2)C3)n1 (stereo not shown) [Example 250, 1-((3-(5-(4-methylthiazol-2-yl)-4,5-dihydro-1H-pyrazole-1-carbonyl)bicyclo[1.1.1]-pentan-1-yl)methyl)-1H-indazole-5-carbonitrile] | 267 nM |
| Cc1ccc(C2CC=NN2C(=O)C23CC(Cn4ncc5cc(C#N)ccc54)(C2)C3)c(F)c1 (stereo not shown) [Example 238, 1-((3-(5-(2-fluoro-4-methyl-phenyl)-4,5-dihydro-1H-pyrazole-1-carbonyl)bicyclo-[1.1.1]pentan-1-yl)methyl)-1H-indazole-5-carbonitrile] | 8.4 nM |
| CN(C(=O)C12CC(Cn3ncc4cc(C#N)ccc43)(C1)C2)c1ccccc1Cl [Example 299, N-(2-chlorophenyl)-3-((5-cyano-1H-indazol-1-yl)-methyl)-N-methylbicyclo-[1.1.1]pentane-1-carboxamide] | 7010 nM |
| N#Cc1ccc(OCC23CC(C(=O)N4N=CCC4c4cccc(F)c4F)(C2)C3)nc1 (stereo not shown) [Example 270, 6-((3-(5-(2,3-difluorophenyl)-4,5-dihydro-1H-pyrazole-1-carbonyl)bicyclo[1.1.1]pentan-1-yl)methoxy)nicotinonitrile] | 16 nM |
| Cc1cc(C#N)cnc1OCC12CC(C(=O)N3N=CCC3c3cc(F)cc(F)c3)(C1)C2 (stereo not shown) [Example 225, 6-((3-(5-(3,5-difluorophenyl)-4,5-dihydro-1H-pyrazole-1-carbonyl)bicyclo[1.1.1]pentan-1-yl)methoxy)-5-methyl-nicotinonitrile] | 92 nM |
| N#Cc1cnc(OCC23CC(C(=O)N4N=CCC4c4cn5ccccc5n4)(C2)C3)cn1 (stereo not shown) [Example 317, 5-((3-(5-(imidazo[1,2-a]-pyridin-2-yl)-4,5-dihydro-1H-pyrazole-1-carbonyl)bicyclo-[1.1.1]pentan-1-yl)methoxy)-pyrazine-2-carbonitrile] | 8510 nM |
| N#Cc1cnc(OCC23CC(C(=O)N4CC(F)CC4c4cccc(F)c4)(C2)C3)cn1 (stereo not shown) [Example 283] | 160 nM |
| Cc1ncc(C2CC=NN2C(=O)C23CC(Cn4ncc5cc(C#N)ccc54)(C2)C3)cc1F (stereo not shown) [Example 246, 1-((3-(5-(5-fluoro-6-methyl-pyridin-3-yl)-4,5-dihydro-1H-pyrazole-1-carbonyl)bicyclo-[1.1.1]pentan-1-yl)methyl)-1H-indazole-5-carbonitrile] | 73 nM |
| N#Cc1ccc(OCC23CC(C(=O)N4N=CCC4c4cncc(F)c4)(C2)C3)nc1 (stereo not shown) [Example 285, 6-((3-(5-(5-fluoropyridin-3-yl)-4,5-dihydro-1H-pyrazole-1-carbonyl)bicyclo[1.1.1]-pentan-1-yl)methoxy)-nicotinonitrile] | 164 nM |
| N#Cc1ccc2c(cnn2CC23CC(C(=O)N4N=CCC4c4ncccn4)(C2)C3)c1 (stereo not shown) [Example 259, 1-((3-(5-(pyrimidin-2-yl)-4,5-dihydro-1H-pyrazole-1-carbonyl)bicyclo[1.1.1]pentan-1-yl)methyl)-1H-indazole-5-carbonitrile] | 5450 nM |
| N#Cc1ccc(OCC23CC(C(=O)N4N=CCC4c4cc(F)cc(F)c4)(C2)C3)cn1 (stereo not shown) [Example 224, 5-((3-(5-(3,5-difluorophenyl)-4,5-dihydro-1H-pyrazole-1-carbonyl)bicyclo[1.1.1]pentan-1-yl)methoxy)picolinonitrile] | 51 nM |
| COc1ccc(C(O)C23CC(C(=O)N4N=CCC4c4cc(F)cc(F)c4)(C2)C3)cc1 (stereo not shown) [Example 231, (5-(3,5-difluorophenyl)-4,5-dihydro-1H-pyrazol-1-yl)(3-(hydroxy(4-methoxyphenyl)-methyl)bicyclo[1.1.1]pentan-1-yl)methanone] | 3040 nM |
| N#Cc1ccc(OCC23CC(C(=O)N4N=CCC4c4cncc(C#N)c4)(C2)C3)nc1 (stereo not shown) [Example 286, 5-(1-(3-(((5-cyanopyridin-2-yl)oxy)methyl)bicyclo[1.1.1]-pentane-1-carbonyl)-4,5-dihydro-1H-pyrazol-5-yl)-nicotinonitrile] | 218 nM |
| Cn1cc(-c2cnc(OCC34CC(C(=O)N5N=CCC5c5cc(F)cc(F)c5)(C3)C4)cn2)cn1 (stereo not shown) [Example 344, (5-(3,5-difluorophenyl)-4,5-dihydro-1H-pyrazol-1-yl)(3-(((5-(1-methyl-1H-pyrazol-4-yl)pyrazin-2-yl)oxy)methyl)-bicyclo[1.1.1]pentan-1-yl)methanone] | 56 nM |
| N#Cc1ccc2c(cnn2CC23CC(C(=O)N4N=CCC4c4nc(C#N)cs4)(C2)C3)c1 (stereo not shown) [Example 254, 2-(1-(3-((5-cyano-1H-indazol-1-yl)methyl)bicyclo[1.1.1]-pentane-1-carbonyl)-4,5-dihydro-1H-pyrazol-5-yl)-thiazole-4-carbonitrile] | 503 nM |
| Cc1ccccc1C1CC=NN1C(=O)C12CC(COc3ccc(C#N)cn3)(C1)C2 (stereo not shown) [Example 314, 6-((3-(5-(o-tolyl)-4,5-dihydro-1H-pyrazole-1-carbonyl)-bicyclo[1.1.1]pentan-1-yl)-methoxy)nicotinonitrile] | 475 nM |
| Cc1cc(F)c(C2CC=NN2C(=O)C23CC(COc4ccc(C#N)cn4)(C2)C3)cc1F (stereo not shown) [Example 305, 6-((3-(5-(2,5-difluoro-4-methylphenyl)-4,5-dihydro-1H-pyrazole-1-carbonyl)-bicyclo[1.1.1]pentan-1-yl)-methoxy)nicotinonitrile] | 6.5 nM |
| Cc1ccc(C2CC=NN2C(=O)C23CC(COc4cnc(C#N)cn4)(C2)C3)c(F)c1 (stereo not shown) [Example 267, 5-((3-(5-(2-fluoro-4-methyl-phenyl)-4,5-dihydro-1H-pyrazole-1-carbonyl)bicyclo-[1.1.1]pentan-1-yl)methoxy)-pyrazine-2-carbonitrile] | 3.8 nM |
| O=C(N1N=CCC1c1cc(F)cc(F)c1)C12CC(C(F)c3cc(F)cc(Cl)c3)(C1)C2 (stereo not shown) [Example 227, (3-((3-chloro-5-fluorophenyl-)fluoromethyl)bicyclo[1.1.1]-pentan-1-yl)(5-(3,5-difluoro-phenyl)-4,5-dihydro-1H-pyrazol-1-yl)methanone] | 133 nM |
| N#Cc1ccc2c(cnn2CC23CC(C(=O)N4N=CCC4c4ccc(F)cc4F)(C2)C3)c1 (stereo not shown) [Example 240, 1-((3-(5-(2,4-difluorophenyl)-4,5-dihydro-1H-pyrazole-1-carbonyl)bicyclo[1.1.1]pentan-1-yl)methyl)-1H-indazole-5-carbonitrile] | 13 nM |
| C[C@@H](c1c(F)cccc1F)N(C)C(=O)C12CC(COc3cnc(C#N)cn3)(C1)C2 [Example 292, (S)-3-(((5-cyanopyrazin-2-yl)oxy)methyl)-N-(1-(2,6-difluorophenyl)ethyl)-N-methylbicyclo[1.1.1]pentane-1-carboxamide] | 956 nM |
